{"source": "patent US9598420B2", "about": "“Benzodiazepine bromodomain inhibitor” (GlaxoSmithKline LLC, priority 2009, dated 2017)", "note": "Counter-ions that a name gives are not always drawn."}
{"test_system": "LPS induced IL-6 secretion from whole blood", "test": "Measurement of LPS Induced IL-6 Secretion from Whole Blood", "format": "cell-based", "conditions": "LPS 200 ng/ml, 24 hours, immunoassay, read-out: pIC50 (IL-6 levels) (converted)", "description": "Activation of monocytic cells by agonists of toll-like receptors such as bacterial lipopolysaccharide (LPS) results in production of key inflammatory mediators including IL-6. Such pathways are widely considered to be central to the pathophysiology of a range of auto-immune and inflammatory disorders.\nAfter further incubation for 24 hours at 37 degrees, 140 ul of PBS are added to each well. The plates are sealed, shaken for 10 minutes and then centrifuged (2500 rpm×10 min). 100 ul of the supernatant are removed and IL-6 levels assayed by immunoassay (typically by MesoScale Discovery technology) either immediately or following storage at −20 degrees.", "units": {"IC50": "µM"}}
{"smiles": "COc1ccc2c(c1)C(c1ccc(Cl)cc1)=NC(CC(=O)NCCc1ccccc1)c1nnc(C)n1-2", "note": "(stereo not shown) [Example 2, 2-[6-(4-chlorophenyl)-1-methyl-8-(methyloxy)-4H-[1,2,4]triazolo[4,3-a][1,4]benzodiazepin-4-yl]-N-(2-phenylethyl)acetamide]", "IC50": "≤ 10"}
{"smiles": "COc1ccc2c(c1)C(c1ccc(Cl)cc1)=NC(CC(=O)N1CCCCC1)c1nnc(C)n1-2", "note": "(stereo not shown) [Example 3, 6-(4-chlorophenyl)-1-methyl-8-(methyloxy)-4-[2-oxo-2-(1-piperidinyl)ethyl]-4H-[1,2,4]triazolo[4,3-a][1,4]benzodiazepine]", "IC50": "≤ 10"}
{"smiles": "COc1ccc2c(c1)C(c1ccc(Cl)cc1)=NC(CC(=O)NCc1ccco1)c1nnc(C)n1-2", "note": "(stereo not shown) [Example 4, 2-[6-(4-chlorophenyl)-1-methyl-8-(methyloxy)-4H-[1,2,4]triazolo[4,3-a][1,4]benzodiazepin-4-yl]-N-(2-furanylmethyl)acetamide]", "IC50": "≤ 10"}
{"smiles": "COc1ccc2c(c1)C(c1ccc(Cl)cc1)=N[C@@H](CC(=O)Nc1ccc(F)cc1)c1nnc(C)n1-2", "note": "[Example 11, 2-[(4S)-6-(4-chlorophenyl)-1-methyl-8-(methyloxy)-4H-[1,2,4]triazolo[4,3-a][1,4]benzodiazepin-4-yl]-N-(4-fluorophenyl)acetamide]", "IC50": "≤ 10"}
{"smiles": "COc1ccc2c(c1)C(c1ccc(Cl)cc1)=N[C@@H](CC(=O)Nc1cccnc1)c1nnc(C)n1-2", "note": "[Example 13, 2-[(4S)-6-(4-chlorophenyl)-1-methyl-8-(methyloxy)-4H-[1,2,4]triazolo[4,3-a][1,4]benzodiazepin-4-yl]-N-3-pyridinylacetamide]", "IC50": "≤ 10"}
{"smiles": "COc1ccc2c(c1)C(c1ccc(Cl)cc1)=N[C@@H](CC(=O)N[C@@H](C)c1ccccc1)c1nnc(C)n1-2", "note": "[Example 17, 2-[(4S)-6-(4-chlorophenyl)-1-methyl-8-(methyloxy)-4H-[1,2,4]triazolo[4,3-a][1,4]benzodiazepin-4-yl]-N-[(1S)-1-phenylethyl]acetamide]", "IC50": "≤ 10"}
{"smiles": "COc1ccc2c(c1)C(c1ccc(Cl)cc1)=NC(CC(=O)NCCN(C)C)c1nnc(C)n1-2", "note": "(stereo not shown) [Example 26, 2-[6-(4-chlorophenyl)-1-methyl-8-(methyloxy)-4H-[1,2,4]triazolo[4,3-a][1,4]benzodiazepin-4-yl]-N-[2-(dimethylamino)ethyl]acetamide]", "IC50": "≤ 10"}
{"smiles": "Cc1nnc2n1-c1ccc(OS(C)(=O)=O)cc1C(c1ccc(Cl)cc1)=N[C@H]2CC(=O)Nc1ccc(F)cc1", "note": "[Example 31, (4S)-6-(4-Chlorophenyl)-4-{2-[(4-fluorophenyl)amino]-2-oxoethyl}-1-methyl-4H-[1,2,4]triazolo[4,3-a][1,4]benzodiazepin-8-yl methanesulfonate]", "IC50": "≤ 10"}
{"smiles": "COC(=O)C[C@@H]1N=C(c2ccc(Cl)cc2)c2cc(OC)ccc2-n2c(C)nnc21", "note": "[Example 34, Methyl [(4S)-6-(4-chlorophenyl)-1-methyl-8-(methyloxy)-4H-[1,2,4]triazolo[4,3-a][1,4]benzodiazepin-4-yl]acetate]", "IC50": "≤ 10"}
{"smiles": "CNCCNC(=O)C[C@@H]1N=C(c2ccc(Cl)cc2)c2cc(OC)ccc2-n2c(C)nnc21", "note": "[Example 38, 2-[(4S)-6-(4-Chlorophenyl)-1-methyl-8-(methyloxy)-4H-[1,2,4]triazolo[4,3-a][1,4]benzodiazepin-4-yl]-N-[2-(methylamino)ethyl]acetamide trifluoroacetic acid salt]", "IC50": "≤ 10"}
{"smiles": "COc1ccc2c(c1)C(c1ccc(Cl)cc1)=N[C@@H](CC(=O)NC1CCNCC1)c1nnc(C)n1-2", "note": "[Example 39, 2-[(4S)-6-(4-Chlorophenyl)-1-methyl-8-(methyloxy)-4H-[1,2,4]triazolo[4,3-a][1,4]benzodiazepin-4-yl]-N-4-piperidinylacetamide trifluoroacetic acid salt]", "IC50": "≤ 10"}
{"smiles": "CNC1CCN(C(=O)C[C@@H]2N=C(c3ccc(Cl)cc3)c3cc(OC)ccc3-n3c(C)nnc32)CC1", "note": "[Example 40, 1-{[(4S)-6-(4-chlorophenyl)-1-methyl-8-(methyloxy)-4H-[1,2,4]triazolo[4,3-a][1,4]benzodiazepin-4-yl]acetyl}-N-methyl-4-piperidinamine formic acid salt]", "IC50": "≤ 10"}
{"smiles": "COc1ccc2c(c1)C(c1ccc(Cl)cc1)=N[C@@H](CC(=O)N1CCC(N)CC1)c1nnc(C)n1-2", "note": "[Example 41, (S)-1-(4-aminopiperidin-1-yl)-2-(6-(4-chlorophenyl)-8-methoxy-1-methyl-4H-benzo[f][1,2,4]triazolo[4,3-a][1,4]diazepin-4-yl)ethanone]", "IC50": "≤ 10"}
{"smiles": "COc1ccc2c(c1)C(c1ccc(Cl)cc1)=N[C@@H](CC(=O)NC1CNC1)c1nnc(C)n1-2", "note": "[Example 42, (S)-N-(azetidin-3-yl)-2-(6-(4-chlorophenyl)-8-methoxy-1-methyl-4H-benzo[f][1,2,4]triazolo[4,3-a][1,4]diazepin-4-yl)acetamide]", "IC50": "≤ 10"}
{"smiles": "COc1ccc2c(c1)C(c1ccc(Cl)cc1)=N[C@@H](CC(=O)N1CC(N)C1)c1nnc(C)n1-2", "note": "[Example 43, (S)-1-(3-aminoazetidin-1-yl)-2-(6-(4-chlorophenyl)-8-methoxy-1-methyl-4H-benzo[f][1,2,4]triazolo[4,3-a][1,4]diazepin-4-yl)ethanone]", "IC50": "≤ 10"}
{"smiles": "COc1ccc2c(c1)C(c1ccc(Cl)cc1)=N[C@@H](CC(=O)N1CCC(O)CC1)c1nnc(C)n1-2", "note": "[Example 44, (S)-2-(6-(4-chlorophenyl)-8-methoxy-1-methyl-4H-benzo[f][1,2,4]triazolo[4,3-a][1,4]diazepin-4-yl)-1-(4-hydroxypiperidin-1-yl)ethanone]", "IC50": "≤ 10"}
{"smiles": "COc1ccc2c(c1)C(c1ccc(Cl)cc1)=N[C@@H](CC(=O)NCCN1CCOCC1)c1nnc(C)n1-2", "note": "[Example 45, 2-[(4S)-6-(4-chlorophenyl)-1-methyl-8-(methyloxy)-4H-[1,2,4]triazolo[4,3-a][1,4]benzodiazepin-4-yl]-N-[2-(4-morpholinyl)ethyl]acetamide]", "IC50": "≤ 10"}
{"smiles": "COc1ccc2c(c1)C(c1ccc(Cl)cc1)=N[C@@H](CC(=O)NCCc1c[nH]cn1)c1nnc(C)n1-2", "note": "[Example 46, 2-[(4S)-6-(4-chlorophenyl)-1-methyl-8-(methyloxy)-4H-[1,2,4]triazolo[4,3-a][1,4]benzodiazepin-4-yl]-N-[2-(1H-imidazol-4-yl)ethyl]acetamide]", "IC50": "≤ 10"}
{"smiles": "COc1ccc2c(c1)C(c1ccc(Cl)cc1)=N[C@@H](CC(=O)OC(C)(C)C)c1nnc(C)n1-2", "note": "[Example 47, (S)-tert-butyl-2-(6-(4-chlorophenyl)-8-methoxy-1-methyl-4H-benzo[f][1,2,4]triazolo[4,3-a][1,4]diazepin-4-yl)acetate]", "IC50": "≤ 10"}
{"smiles": "COc1ccc2c(c1)C(c1ccc(Cl)cc1)=N[C@@H](CC(=O)OC1CCNCC1)c1nnc(C)n1-2", "note": "[Example 48, (S)-piperidin-4-yl-2-(6-(4-chlorophenyl)-8-methoxy-1-methyl-4H-benzo[f][1,2,4]triazolo[4,3-a][1,4]diazepin-4-yl)acetate]", "IC50": "≤ 10"}
{"smiles": "COc1ccc2c(c1)C(c1ccc(Cl)cc1)=N[C@@H](CC(=O)NCCN(C)C)c1nnc(C)n1-2", "note": "[Example 50, 2-[(4S)-6-(4-chlorophenyl)-1-methyl-8-(methyloxy)-4H-[1,2,4]triazolo[4,3-a][1,4]benzodiazepin-4-yl]-N-[2-(dimethylamino)ethyl]acetamide formic acid salt]", "IC50": "≤ 10"}
{"smiles": "COc1ccc2c(c1)C(c1ccc(Cl)cc1)=N[C@@H](CC(=O)NCCCN(C)C)c1nnc(C)n1-2", "note": "[Example 51, 2-[(4S)-6-(4-chlorophenyl)-1-methyl-8-(methyloxy)-4H-[1,2,4]triazolo[4,3-a][1,4]benzodiazepin-4-yl]-N-[3-(dimethylamino)propyl]acetamide formic acid salt]", "IC50": "≤ 10"}
{"smiles": "COc1ccc2c(c1)C(c1ccc(Cl)cc1)=N[C@@H](CC(=O)Nc1ccncn1)c1nnc(C)n1-2", "note": "[Example 54, 2-[(4S)-6-(4-chlorophenyl)-1-methyl-8-(methyloxy)-4H-[1,2,4]triazolo[4,3-a][1,4]benzodiazepin-4-yl]-N-4-pyrimidinylacetamide]", "IC50": "≤ 10"}
{"smiles": "COc1ccc2c(c1)C(c1ccc(Cl)cc1)=N[C@@H](CC(=O)Nc1cc(C)on1)c1nnc(C)n1-2", "note": "[Example 55, 2-[(4S)-6-(4-chlorophenyl)-1-methyl-8-(methyloxy)-4H-[1,2,4]triazolo[4,3-a][1,4]benzodiazepin-4-yl]-N-(5-methyl-3-isoxazolyl)acetamide]", "IC50": "≤ 10"}
{"smiles": "COc1ccc2c(c1)C(c1ccc(Cl)cc1)=N[C@@H](CC(=O)NC1CCOCC1)c1nnc(C)n1-2", "note": "[Example 56, 2-[(4S)-6-(4-chlorophenyl)-1-methyl-8-(methyloxy)-4H-[1,2,4]triazolo[4,3-a][1,4]benzodiazepin-4-yl]-N-(tetrahydro-2H-pyran-4-yl)acetamide]", "IC50": "≤ 10"}
{"smiles": "COc1ccc(COC(=O)C[C@@H]2N=C(c3ccc(Cl)cc3)c3cc(OC)ccc3-n3c(C)nnc32)cc1", "note": "[Example 58]", "IC50": "≤ 10"}
{"smiles": "COc1ccc2c(c1)C(c1ccc(Cl)cc1)=N[C@@H](CC(=O)OCC(C)C)c1nnc(C)n1-2", "note": "[Example 59]", "IC50": "≤ 10"}
{"smiles": "COc1ccc2c(c1)C(c1ccc(Cl)cc1)=N[C@@H](CC(=O)OC1CCOCC1)c1nnc(C)n1-2", "note": "[Example 60]", "IC50": "≤ 10"}
{"smiles": "COc1ccc2c(c1)C(c1ccc(Cl)cc1)=NC(CC(=O)Nc1ccncc1)c1nnc(C)n1-2", "note": "(stereo not shown) [Example 61]", "IC50": "≤ 10"}
{"smiles": "COc1ccc2c(c1)C(c1ccc(Cl)cc1)=NC(CC(=O)NCC1CC1)c1nnc(C)n1-2", "note": "(stereo not shown) [Example 62]", "IC50": "≤ 10"}
{"smiles": "Cc1nnc2n1-c1ccccc1C(c1ccc(Cl)cc1)=NC2CC(=O)Nc1ccncc1", "note": "(stereo not shown) [Example 63]", "IC50": "≤ 10"}
{"smiles": "COc1ccc2c(c1)C(c1ccc(Cl)cc1)=NC(CC(=O)Nc1nccs1)c1nnc(C)n1-2", "note": "(stereo not shown) [Example 64]", "IC50": "≤ 10"}
{"smiles": "COc1ccc2c(c1)C(c1ccc(Cl)cc1)=NC(CC(=O)Nc1ccc(F)cc1)c1nnc(C)n1-2", "note": "(stereo not shown) [Example 67]", "IC50": "≤ 10"}
{"smiles": "CCNC(=O)C[C@@H]1N=C(c2ccc(Cl)cc2)c2ccc(OC)cc2-n2c(C)nnc21", "note": "[Example 69]", "IC50": "≤ 10"}
